According to patent publication US5795887A, “Method of inducing cholecystokinin agonist activity using 1,4- Benzodiazepine compounds” (Glaxo Wellcome Inc., priority 1994, dated 1998):

System: isolated guinea pig gallbladder
Assay: Isolated guinea pig gallbladder assay (contraction, % CCK-induced maximal response)
Details: Table 1; for % contraction at 1 µM / % contraction at 30 µM: Cavia porcellus; for % contraction at 1 µM: read-out: % Contraction (1 μM), expressed as % CCK-induced maximal response; for % contraction at 30 µM: read-out: % Contraction (30 μM), expressed as % CCK-induced maximal response
Experimental: 3. GUINEA PIG GALL BLADDER ASSAY
Gallbladders are removed from guinea pigs sacrificed by cervical dislocation. The isolated gallbladders are cleaned of adherent connective tissue and cut into two rings from each animal (2-6 mm in length). […] Tissues are connected via gold chains and stainless steel mounting wires to isometric force displacement transducers (Grass, Model FT03 D). Responses are then recorded on a polygraph (Grass, Model 7E).
Rings are gradually stretched (over a 120 min. period) to a basal resting tension of 1 gm which is maintained throughout the experiment. During the basal tension adjustment period, the rings are exposed to acetylcholine (10^-6 M) four times to verify tissue contractility. The tissues are then exposed to a submaximal dose of sulfated CCK-8 (Sigma, 3×10^-9 M). After obtaining a stable response, the tissues are washed out 3 times rapidly and every 5 to 10 minutes for 1 hour to reestablish a stable baseline.
As a final test, ACH (10 μM) is added to induce maximal contraction.

Row | SMILES | % contraction at 1 µM (1 μM) | % contraction at 30 µM (30 μM) | further results
1 | COc1ccc(N(C(=O)CN2C(=O)C(CC(=O)Nc3ccccc3)N=C(c3ccccc3)c3ccccc32)C(C)C)cc1 (stereo not drawn) [Example 11, 2-{1-[Isopropyl-(4-methoxy-phenyl)-carbamoylmethyl]-2-oxo-5-phenyl-2,3-dihydro-1H-benzo[e][1,4]diazepin-3-yl}N-phenyl-acetamide] | 56% | 43% | 
2 | CC(C)N(C(=O)CN1C(=O)[C@@H](NC(=O)Nc2cccc(C(=O)O)c2)N=C(c2ccccc2)c2ccccc21)c1ccccc1 [Example 12, (S)-3-{3-[1-(Isopropyl-phenyl-carbamoylmethyl)-2-oxo-5-phenyl-2,3-dihydro-1H-benzo[e][1,4]diazepin-3-yl]-ureido}-benzoic acid] |  | 80% | 
3 | COc1ccc(N(C(=O)CN2C(=O)C(NC(=O)Nc3ccccc3)N=C(c3cccnc3)c3ccccc32)C(C)C)cc1 (stereo not drawn) [Example 18, N-Isopropyl-N-(4-methoxy-phenyl)-2-[2-oxo-3-(3-phenyl-ureido)-5-pyridin-3-yl-2,3-dihydro-benzo[e][1,4]diazepin-1-yl]-acetamide] | 75% |  | 
4 | CC(C)N(C(=O)CN1C(=O)C(NC(=O)Nc2ccccc2)n2cnnc2-c2ccccc21)c1ccccc1 (stereo not drawn) [Example 19, N-Isopropyl-N-phenyl-2-[5-oxo-4-(3-phenyl-ureido)-4,5-dihydro-1,2,3a,6-tetraaza-benzo[e]azulen-6-yl]-acetamide] | 83% | 58% | 
5 | CC(C)N(C(=O)CN1C(=O)C(NC(=O)Nc2cccc(C(=O)O)c2)N=C(c2ccccc2)c2ccccc21)c1ccccc1 (stereo not drawn) [Example 5, 3-{3-[1-(Isopropyl-phenyl-carbamoylmethyl)-2-oxo-5-phenyl-2,3-dihydro-1H-benzo[e][1,4]diazepin-3-yl]-ureido}-benzoic acid] |  | 82% | 
6 | COc1ccc(N(C(=O)CN2C(=O)[C@H](Cc3c[nH]c4ccccc34)NC(=O)c3ccccc32)C(C)C)cc1 [Example 21, (S)-2-[3-(1H-Indol-3-ylmethyl)-2,5-dioxo-2,3,4,5-tetrahydro-benzo[e][1,4]diazepin-1-yl]-N-isopropyl-N-(4-methyoxy-phenyl)-acetamide] | 54% |  | 
7 | COc1ccc(N(C(=O)CN2C(=O)C(CC(=O)Nc3cccc(C(=O)O)c3)N=C(c3ccccc3)c3ccccc32)C(C)C)cc1 (stereo not drawn) [Example 10, 3-(2-{1-[Isopropyl-(4-methoxy-phenyl)-carbamoylmethyl]-2-oxo-5-phenyl-2,3-dihydro-1H-benzo[e][1,4]diazepin-3-yl}-acetyl-amino)-benzoic acid] | 54% |  | 
8 | CC(C)N(C(=O)CN1C(=O)C(NC(=O)Nc2ccccc2)[N+]([O-])=C(c2ccccc2)c2ccccc21)c1ccccc1 (stereo not drawn) [Example 16, N-Isopropyl-2-[4-N-oxide-2-oxo-5-phenyl-3-(3-phenyl-ureido)-2,3-dihydro-benzo[e][1,4]diazepin-1-yl]-N-phenyl-acetamide] |  | 67% | 
9 | CC1=NC(NC(=O)Nc2ccccc2)C(=O)N(CC(=O)N(c2ccccc2)C(C)C)c2ccccc21 (stereo not drawn) [Example 2, N-Isopropyl-2-[5-methyl-2-oxo-3-(3-phenyl-ureido)-2,3-dihydro-benzo[e][1,4]diazepin-1-yl]-N-phenyl-acetamide] |  | 88% | 
10 | COc1ccc(N(C(=O)CN2C(=O)[C@@H](Cc3c[nH]c4ccccc34)n3cnnc3-c3ccccc32)C(C)C)cc1 [Example 23, (R)-2-[4-(1H-Indol-3-ylmethyl)-5-oxo-6,5-dihydro-1,2,3a,6-tetraaza-benzo[e]azulene6-yl}-N-isopropyl-N-(4-methoxy-phenyl)-acetamide] | 36% |  | 
11 | CC(C)N(C(=O)CN1C(=O)C(NC(=O)Nc2ccccc2)N=C(c2ccccc2)c2ccccc21)c1ccccc1 (stereo not drawn) [Example 3] |  | 38% | 
12 | COc1ccc(N(C(=O)CN2C(=O)C(Cc3c[nH]c4ccccc34)N=C(c3ccccc3)c3ccccc32)C(C)C)cc1 (stereo not drawn) [Example 17, 3-{1-[Isopropyl-(4-methoxy-phenyl)-carbamoylmethyl]-2-oxo-5-phenyl-2,3-dihydro-1H-benzo[e][1,4]diazepin-3-ylmethyl}-indolyl] | 24% |  | 
13 | CC(C)N(C(=O)CN1C(=O)C(NC(=O)c2cc3ccccc3[nH]2)N=C(c2ccccc2)c2ccccc21)c1ccccc1 (stereo not drawn) [Example 14, 1H-indolyl-2-carboxylic acid [1-(isopropyl-phenyl-carbamoylmethyl)-2-oxo-5-phenyl-2,3-dihydro-1H-benzo[e][1,4]diazepin-3-yl]-amide] |  | 13% | 
14 | COc1ccc(N(C(=O)CN2C(=O)[C@@H](Cc3c[nH]c4ccccc34)NC(=O)c3ccccc32)C(C)C)cc1 [Example 20, (R)-2-[3-(1H-Indol-3-ylmethyl)-2,5-dioxo-2,3,4,5-tetrahydro-benzo[e][1,4]diazepin-1-yl]-N-isopropyl-N-(4-methyoxy-phenyl)-acetamide] | 31% |  | 
15 | COc1ccc(N(C(=O)CN2C(=O)[C@@H](Cc3c[nH]c4ccccc34)NC(=O)c3c(CC(=O)O)cccc32)C(C)C)cc1 [Example 24] |  |  | % Contraction (1 μM), expressed as % CCK-induced maximal response (1 μM): 93%; % Contraction (30 μM), expressed as % CCK-induced maximal response (30 μM): 79%
16 | CC1=NC(NC(=O)Nc2cccc(C(=O)O)c2)C(=O)N(CC(=O)N(c2ccccc2)C(C)C)c2ccccc21 (stereo not drawn) [Example 7, 3-{3-[1-(Isopropyl-phenyl-carbamoylmethyl)-5-methyl-2-oxo-2,3-dihydro-1H-benzo[e][1,4]diazepin-3-yl]-ureido}-benzoic acid] | 16% | 61% | 
17 | CC(C)N(C(=O)CN1C(=O)C(NC(=O)Nc2cccc(C(=O)O)c2)N=C(c2ccccc2)c2ccccc21)c1ccc(N(C)C)cc1 (stereo not drawn) [Example 9, 3-(3-{1-[(4-Dimethylamino-phenyl)-isopropyl-carbamoylmethyl]-2-oxo-5-phenyl-2,3-dihydro-1H-benzo[e][1,4]diazepin-3-yl}-ureido)-benzoic acid] | 73% | 62% | 
18 | CC(C)N(C(=O)CN1C(=O)[C@H](NC(=O)Nc2cccc(C(=O)O)c2)N=C(c2ccccc2)c2ccccc21)c1ccccc1 [Example 13, (R)-3-{3-[1-(Isopropyl-phenyl-carbamoylmethyl)-2-oxo-5-phenyl-2,3-dihydro-1H-benzo[e][1,4]diazepin-3-yl]-ureido}-benzoic acid] |  | 77% | 
19 | COc1ccc(N(C(=O)CN2C(=O)[C@H](Cc3c[nH]c4ccccc34)n3cnnc3-c3ccccc32)C(C)C)cc1 [Example 22, S-2-[4-(1H-Indol-3-ylmethyl)-5-oxo-6,5-dihydro-1,2,3a,6-tetraaza-benzo[e]azulene-6-yl}-N-isopyropyl-N-(4-methoxy-phenyl)acetamide] | 36% |  | 
20 | CC(C)N(C(=O)CN1C(=O)C(NC(=O)c2ccc(Cl)cc2N)N=C(c2ccccc2)c2ccccc21)c1ccccc1 (stereo not drawn) [Example 6, 2-Amino-4-chloro-N-[1-(isopropyl-phenyl-carbamoylmethyl)-5-phenyl-2-oxo-5-phenyl-2,3-dihydro-1H-benzo[e][1,4]diazepin-3-yl]-benzamide] | 41% |  | 
21 | CC1=NC(NC(=O)Nc2cccc3cn[nH]c23)C(=O)N(CC(=O)N(c2ccccc2)C(C)C)c2ccccc21 (stereo not drawn) [Example 4] | 23% | 59% | 
